Assay results taken from patent US10994015B2, “EGFR proteolysis targeting chimeric molecules and associated methods of use” (Arvinas Operations, Inc., priority 2016, dated 2021).

Tests used:
[1] = target: EGFR L858R/T790M double mutant (H1975) (Homo sapiens (Human), UniProt P00533, L858R/T790M); test: EGFR protein degradation assay (Western blot); assay type: cell-based; conditions: 72 hours, 300 nM to 10 nM
In short: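 EGFR protein levels were measured by immunoblotting. Lysate protein was quantified by BCA, and 10 μg per sample was separated by SDS/PAGE at 165V for 2 hours and transferred to PVDF. Membranes were blocked in TBS-T with 5% milk for 1 hour, probed overnight at 4° C with EGFR and tubulin antibodies, then secondary antibody for 1 hour, and detected by ECL on a Chemidoc.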

[2] = target: EGFR L858R/T790M (Homo sapiens (Human), UniProt P00533, L858R/T790M); test: TR-FRET assay for ERBB kinases; assay type: biochemical; conditions: geometric mean if measured more than once
In short: (§1)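 Three-fold DMSO dilution series of each compound is diluted 10-fold into HEPES buffer (pH 7.5, NaCl, MgCl2, DTT, Pluronic). Enzyme is added for a 10 min pre-incubation. ATP/peptide mix (3 mM ATP, 30 uM substrate as added) starts a 10 min room-temperature reaction, halted with EDTA and Tb antibody.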

[3] = target: EGFR WT (Homo sapiens (Human), UniProt P00533); test: TR-FRET assay for ERBB kinases; assay type: biochemical; conditions: geometric mean if measured more than once
In short: as §1

[4] = target: EGFR L858R/T790M/C797S (Homo sapiens (Human), UniProt P00533, C797S/L858R/T790M); test: TR-FRET assay for ERBB kinases; assay type: biochemical; conditions: geometric mean if measured more than once
In short: as §1

[5] = target: EGFR L858R/T790M/C797S triple mutant (H520*) (Homo sapiens (Human), UniProt P00533, C797S/L858R/T790M); test: EGFR protein degradation assay (Western blot); assay type: cell-based; conditions: 72 hours, 300 nM to 10 nM
In short: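 EGFR loss in the triple-mutant line measured by immunoblot: clarified lysates normalised by BCA, run on 4-12% Bis-Tris gels, blotted to PVDF, probed with HRP anti-rabbit secondary. Before lysis, cells were dosed from 1, 0.3, 0.1, 0.03 and 0.01 mM DMSO stocks (not final concentrations) after overnight culture at 37° C.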

[6] = target: HER3 (Homo sapiens (Human), UniProt P21860); test: TR-FRET assay for ERBB kinases; assay type: biochemical; conditions: geometric mean if measured more than once
[7] = target: EGFR Exon20NPG (Homo sapiens (Human), UniProt P00533, INS770NPG); test: TR-FRET assay for ERBB kinases; assay type: biochemical; conditions: geometric mean if measured more than once
In short: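 Phosphorylation of fluorescein-labeled poly-GluTyr read as TR-FRET using Tb-pY20 antibody after EDTA stop, with 340 nm excitation. Kinase reaction ran 10 min at room temperature following 10 min compound pre-incubation; substrate mix held 3 mM ATP and 30 µM peptide before addition. Buffer was HEPES pH 7.5.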

EGFR WT, sequence (P00533 25-1210): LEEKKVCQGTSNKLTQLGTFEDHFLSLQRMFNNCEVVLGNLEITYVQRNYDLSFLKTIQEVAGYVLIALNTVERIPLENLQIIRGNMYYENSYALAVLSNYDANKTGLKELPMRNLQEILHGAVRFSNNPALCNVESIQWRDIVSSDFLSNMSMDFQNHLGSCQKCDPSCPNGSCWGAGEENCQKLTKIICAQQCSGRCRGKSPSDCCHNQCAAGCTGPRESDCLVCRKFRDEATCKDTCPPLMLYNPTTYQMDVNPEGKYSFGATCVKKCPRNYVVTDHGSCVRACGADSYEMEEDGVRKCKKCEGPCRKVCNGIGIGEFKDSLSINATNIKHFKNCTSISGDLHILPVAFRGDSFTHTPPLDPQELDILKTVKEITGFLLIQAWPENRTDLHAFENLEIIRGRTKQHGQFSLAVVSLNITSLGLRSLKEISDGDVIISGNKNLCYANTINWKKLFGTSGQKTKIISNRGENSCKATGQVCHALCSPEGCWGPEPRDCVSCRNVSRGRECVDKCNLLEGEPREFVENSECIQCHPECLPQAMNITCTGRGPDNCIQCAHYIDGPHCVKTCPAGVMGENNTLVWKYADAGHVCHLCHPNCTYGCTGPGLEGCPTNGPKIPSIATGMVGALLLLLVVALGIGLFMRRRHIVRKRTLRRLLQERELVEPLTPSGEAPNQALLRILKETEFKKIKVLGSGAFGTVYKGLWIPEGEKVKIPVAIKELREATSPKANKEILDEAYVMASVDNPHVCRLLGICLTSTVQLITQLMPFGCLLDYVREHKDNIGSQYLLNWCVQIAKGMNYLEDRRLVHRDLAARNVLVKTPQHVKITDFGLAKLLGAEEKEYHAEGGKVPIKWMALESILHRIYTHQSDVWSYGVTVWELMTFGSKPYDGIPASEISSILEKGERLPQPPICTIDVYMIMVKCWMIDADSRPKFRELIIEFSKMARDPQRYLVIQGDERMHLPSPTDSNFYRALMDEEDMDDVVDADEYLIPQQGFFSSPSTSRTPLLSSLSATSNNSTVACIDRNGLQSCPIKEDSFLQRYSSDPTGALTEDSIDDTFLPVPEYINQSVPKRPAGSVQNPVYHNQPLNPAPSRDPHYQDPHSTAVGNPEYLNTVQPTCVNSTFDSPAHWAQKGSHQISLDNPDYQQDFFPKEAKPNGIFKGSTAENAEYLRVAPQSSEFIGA
EGFR L858R/T790M/C797S, sequence (P00533 25-1210 T790M/C797S/L858R): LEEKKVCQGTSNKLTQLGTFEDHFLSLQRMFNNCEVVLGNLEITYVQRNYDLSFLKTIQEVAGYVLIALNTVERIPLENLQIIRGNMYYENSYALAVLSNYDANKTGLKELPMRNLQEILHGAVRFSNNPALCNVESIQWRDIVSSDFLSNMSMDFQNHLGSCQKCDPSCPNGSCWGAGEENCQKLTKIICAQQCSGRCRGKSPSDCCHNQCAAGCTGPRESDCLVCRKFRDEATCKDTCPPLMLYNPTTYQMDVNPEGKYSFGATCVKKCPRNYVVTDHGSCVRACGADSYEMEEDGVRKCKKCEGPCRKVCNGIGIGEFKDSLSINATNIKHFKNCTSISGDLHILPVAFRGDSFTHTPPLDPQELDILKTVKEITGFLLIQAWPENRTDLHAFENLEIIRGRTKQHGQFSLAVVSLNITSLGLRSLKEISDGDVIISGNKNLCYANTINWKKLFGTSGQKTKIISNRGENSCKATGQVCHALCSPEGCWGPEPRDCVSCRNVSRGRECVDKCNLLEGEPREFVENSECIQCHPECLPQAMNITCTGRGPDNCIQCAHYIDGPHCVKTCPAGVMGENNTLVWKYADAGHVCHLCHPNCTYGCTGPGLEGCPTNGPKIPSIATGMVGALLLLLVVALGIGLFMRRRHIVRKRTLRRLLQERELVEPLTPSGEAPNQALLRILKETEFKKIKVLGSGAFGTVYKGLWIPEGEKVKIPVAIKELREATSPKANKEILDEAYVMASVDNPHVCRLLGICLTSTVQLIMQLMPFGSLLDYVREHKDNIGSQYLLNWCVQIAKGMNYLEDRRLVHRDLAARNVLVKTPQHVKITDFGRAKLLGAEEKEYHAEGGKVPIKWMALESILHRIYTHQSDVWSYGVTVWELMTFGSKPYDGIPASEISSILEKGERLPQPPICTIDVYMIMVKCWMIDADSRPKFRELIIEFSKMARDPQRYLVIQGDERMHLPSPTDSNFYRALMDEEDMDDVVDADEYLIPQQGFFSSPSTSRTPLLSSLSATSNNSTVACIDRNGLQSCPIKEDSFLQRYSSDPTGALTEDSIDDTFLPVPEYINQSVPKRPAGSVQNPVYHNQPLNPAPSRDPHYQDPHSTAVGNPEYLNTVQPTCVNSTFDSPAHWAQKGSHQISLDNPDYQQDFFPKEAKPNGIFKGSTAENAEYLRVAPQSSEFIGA
EGFR Exon20NPG, sequence (P00533 other isoform, or with tags, fused parts or gaps del 1-694/ins NPG behind 770 limits assumed): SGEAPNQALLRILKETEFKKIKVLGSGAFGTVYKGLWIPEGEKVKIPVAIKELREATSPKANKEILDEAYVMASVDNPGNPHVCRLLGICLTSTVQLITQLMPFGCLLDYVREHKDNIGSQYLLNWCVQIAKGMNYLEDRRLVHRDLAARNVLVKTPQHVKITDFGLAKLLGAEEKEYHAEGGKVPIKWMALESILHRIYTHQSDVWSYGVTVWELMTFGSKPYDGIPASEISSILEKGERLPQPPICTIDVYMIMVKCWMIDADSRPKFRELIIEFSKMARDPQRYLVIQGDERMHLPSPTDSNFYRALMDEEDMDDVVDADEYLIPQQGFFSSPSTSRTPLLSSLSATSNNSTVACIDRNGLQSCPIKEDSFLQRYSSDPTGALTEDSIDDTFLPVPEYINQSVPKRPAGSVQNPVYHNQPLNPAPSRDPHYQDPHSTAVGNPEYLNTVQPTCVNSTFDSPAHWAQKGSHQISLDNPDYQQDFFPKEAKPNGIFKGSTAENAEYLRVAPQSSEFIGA
EGFR L858R/T790M, sequence (P00533 25-1210 T790M/L858R): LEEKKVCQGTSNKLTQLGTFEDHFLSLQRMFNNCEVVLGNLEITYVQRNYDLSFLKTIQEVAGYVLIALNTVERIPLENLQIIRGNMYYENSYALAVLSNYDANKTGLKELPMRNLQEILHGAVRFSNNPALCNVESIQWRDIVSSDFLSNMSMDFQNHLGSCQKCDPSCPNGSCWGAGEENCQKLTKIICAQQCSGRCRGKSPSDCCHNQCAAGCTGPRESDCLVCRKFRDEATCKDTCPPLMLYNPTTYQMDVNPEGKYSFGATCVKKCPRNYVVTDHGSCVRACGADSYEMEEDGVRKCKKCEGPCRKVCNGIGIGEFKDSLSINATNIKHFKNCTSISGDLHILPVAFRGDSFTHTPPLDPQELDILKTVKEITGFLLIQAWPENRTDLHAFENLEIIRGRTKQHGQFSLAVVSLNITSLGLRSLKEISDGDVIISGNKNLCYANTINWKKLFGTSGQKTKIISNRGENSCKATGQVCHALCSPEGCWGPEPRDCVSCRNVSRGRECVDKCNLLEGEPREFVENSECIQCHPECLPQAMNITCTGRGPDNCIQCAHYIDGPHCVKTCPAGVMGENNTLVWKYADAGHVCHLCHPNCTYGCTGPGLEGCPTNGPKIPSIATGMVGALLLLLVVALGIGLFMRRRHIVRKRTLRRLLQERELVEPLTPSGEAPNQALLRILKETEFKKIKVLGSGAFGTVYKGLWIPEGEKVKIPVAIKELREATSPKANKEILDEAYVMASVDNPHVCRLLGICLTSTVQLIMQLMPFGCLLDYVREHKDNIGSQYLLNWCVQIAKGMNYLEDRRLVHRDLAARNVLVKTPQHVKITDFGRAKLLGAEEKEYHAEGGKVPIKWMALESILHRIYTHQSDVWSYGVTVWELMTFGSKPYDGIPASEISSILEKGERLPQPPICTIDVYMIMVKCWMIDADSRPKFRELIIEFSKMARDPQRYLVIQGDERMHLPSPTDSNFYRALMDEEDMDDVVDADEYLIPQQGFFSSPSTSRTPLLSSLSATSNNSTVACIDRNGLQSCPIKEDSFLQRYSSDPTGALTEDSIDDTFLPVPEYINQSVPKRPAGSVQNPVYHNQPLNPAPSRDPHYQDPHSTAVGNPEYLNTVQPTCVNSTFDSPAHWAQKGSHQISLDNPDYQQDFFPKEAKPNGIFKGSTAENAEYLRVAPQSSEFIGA

Compound | EGFR protein remaining, EGFR L858R/T790M double mutant [1] | IC50 [2] | IC50 [3] | IC50 [4] | EGFR protein remaining, EGFR L858R/T790M/C797S triple mutant [5] | IC50 [6] | IC50 [7]
COC1CCN(c2nccc(Nc3cc4c(cn3)nc(COCCN3CCN(CCOc5ccc6c(c5)C(=O)N(C5CCC(=O)NC5=O)C6=O)CC3)n4C(C)C)n2)CC1 (stereo not shown) [Example 76, 2-(2,6-dioxopiperidin-3-yl)-5-(2-(4-(2-((1-isopropyl-6-((2-(4-methoxypiperidin-1-yl)pyrimidin-4-yl)amino)-1H-imidazo[4,5-c]pyridin-2-yl)methoxy)ethyl)piperazin-1-yl)ethoxy)isoindoline-1,3-dione] | C (>80% EGFR protein remaining after 72 hours of incubation with the test compound at a concentration of 300 nM) | 0.36 µM | 17 µM | 0.036 µM | C (>80% EGFR protein remaining after 72 hours of incubation with the test compound at a concentration of 300 nM) | 8.6 µM | 14 µM
COC1CCN(c2nccc(Nc3cc4c(cn3)nc(COCCOCCOCCOCCON3CCN(c5ccc6c(c5)C(=O)N(C5CCC(=O)NC5=O)C6=O)CC3)n4C(C)C)n2)CC1 (stereo not shown) [compound 75] | C (>80% EGFR protein remaining after 72 hours of incubation with the test compound at a concentration of 300 nM) | > 30 µM | > 30 µM | > 30 µM | – | > 30 µM | > 30 µM
Cc1ncsc1-c1ccc([C@H](C)NC(=O)[C@H]2C[C@H](O)CN2C(=O)[C@@H](NC(=O)COCCOCCOCC#Cc2cccc3c2C(=O)N(C(C(=O)Nc2nccs2)c2cc(F)ccc2O)C3)C(C)(C)C)cc1 (stereo partly shown) [compound 84] | C (>80% EGFR protein remaining after 72 hours of incubation with the test compound at a concentration of 300 nM) | 0.68 µM | 1.8 µM | 0.27 µM | – | > 30 µM | 5.3 µM
COC1CCN(c2nccc(Nc3cc4c(cn3)nc(COCCON3CCN(c5ccc6c(c5)C(=O)N(C5CCC(=O)NC5=O)C6=O)CC3)n4C(C)C)n2)CC1 (stereo not shown) [compound 72] | C (>80% EGFR protein remaining after 72 hours of incubation with the test compound at a concentration of 300 nM) | > 30 µM | > 30 µM | 30 µM | – | > 30 µM | 22 µM
COC1CCN(c2nccc(Nc3cc4c(cn3)nc(COCCOCC(=O)N[C@H](C(=O)N3C[C@@H](O)C[C@@H]3C(=O)N[C@@H](C)c3ccc(-c5scnc5C)cc3)C(C)(C)C)n4C(C)C)n2)CC1 [compound 77] | C (>80% EGFR protein remaining after 72 hours of incubation with the test compound at a concentration of 300 nM) | 9.1 µM | 24 µM | 9.4 µM | – | > 30 µM | 12 µM
COC1CCN(c2nccc(Nc3cc4c(cn3)nc(COCCOCCON3CCN(c5ccc6c(c5)C(=O)N(C5CCC(=O)NC5=O)C6=O)CC3)n4C(C)C)n2)CC1 (stereo not shown) [compound 74] | C (>80% EGFR protein remaining after 72 hours of incubation with the test compound at a concentration of 300 nM) | > 30 µM | > 30 µM | 10 µM | – | > 30 µM | > 30 µM
COC1CCN(c2nccc(Nc3cc4c(cn3)nc(COCCOCCOCCOCC(=O)N[C@H](C(=O)N3C[C@@H](O)C[C@@H]3C(=O)N[C@@H](C)c3ccc(-c5scnc5C)cc3)C(C)(C)C)n4C(C)C)n2)CC1 [compound 79] | C (>80% EGFR protein remaining after 72 hours of incubation with the test compound at a concentration of 300 nM) | 29 µM | > 30 µM | 7.6 µM | – | > 30 µM | > 30 µM
